From US9067935B2 (Janssen Pharmaceutica, NV, priority 2010, dated 2015)
pEC50, pIC50: −log10 of the molar value. Values joined by “and” are separate entries in the source; they are usually repeats but may differ in a detail not shown here. Identical values can stand only once. Like-named read-outs stand apart in the source and are kept apart here.

Legend:
[1] = biological target: canine TRPM8 (Canis lupus familiaris, UniProt Q1A7N1); test: In Vitro Canine TRPM8 Functional Assay (intracellular Ca2+ fluorescence, icilin challenge); type: cell-based; details: for pIC50: icilin at ~80% maximal response
Description: The functional activity of compounds of the formula (I) was determined by measuring changes in intracellular calcium concentration using a Ca^2+-sensitive fluorescent dye. The changes in fluorescent signal were monitored by a fluorescence plate reader, either a FLIPR™ (Molecular Devices) or FDSS (Hamamatsu).
At 24 hrs prior to assay, HEK293 cells stably expressing canine TRPM8 were seeded in culture medium in black wall, clear-base poly-D-lysine coated 384-well plates (BD Biosciences, NJ, USA) and grown overnight in 5% CO2 at 37° C. On assay day, growth media was removed and cells were loaded with Calcium 3 Dye (Molecular Devices) for 35 min at 37° C., under 5% CO2 and then for 25 min at room temperature and atmosphere. Subsequently, cells were tested for agonist-induced increases in intracellular Ca^2+ levels using FLIPR™ or FDSS. Cells were challenged with a compound of the Formula (I) (at varying concentrations) and intracellular Ca^2+ was measured for 5 min prior to the addition of icilin to all wells to achieve a final concentration that produces approximately an 80% maximal response. EC50 or IC50 values for compounds of the present invention were determined from eight-point dose-response studies. Curves were generated using the average of quadruplicate wells for each data point.

[2] = tested on: Male Sprague Dawley rats; test: Inhibition of Icilin-Induced "Wet-Dog" Shakes in Rats; type: in vivo; details: rat, dose 10, p.o.
Description: Similar shaking or jumping behavior was also evident in mice, rabbits, cats, dogs and monkeys. In humans, icilin produced a sensation of coolness on contact with mucous membranes, cold prickling when 0.1 mg was dropped on the tongue and coldness in the mouth, pharynx and chest lasting 30-60 minutes when 5-10 mg was ingested orally (Wei E T, Seid D A, J Pharm Pharmacol. 1983, 35, 110). The inhibition or reversal of icilin-induced shaking behaviors in rodents provides evidence for the utility of TRPM8 antagonists of the formula (I) in treating or preventing a disease, syndrome, disorder, or condition in a subject in which the disease, syndrome, disorder or condition is affected by the modulation of TRPM8 receptors.
Male Sprague Dawley rats (220-450 g, Charles River Labs, n=6-9/treatment) may be used to evaluate the ability of selected compounds of the formula (I) to block icilin-induced “wet-dog” shakes (WDS). Compounds of the formula (I) may be administered in an appropriate vehicle, such as hydroxypropyl-β-cyclodextrin (HPIβCD), methocellulose, 10% Solutol, or H2O, or the like, by the appropriate route, i.p. or p.o., 30-120 minutes before icilin. Icilin may be administered in PEG-400 or 10% solutol/H2O, at 1.0 or 3.0 mg/kg, i.p. and spontaneous “wet-dog” shakes may be counted 10-20 minutes post-icilin.

[3] = biological target: TRPM8 (Mus musculus (Mouse), UniProt Q8R4D5); details: TRPM8 transfected cells (Behrendt H J et al. 2004); cited from earlier work
[4] = HEK293 cells stably expressing canine TRPM8
[5] = HEK293, @ 0.2 μM, HEK293 cells stably expressing canine TRPM8, read-out: % Inh (%) @ 0.2 μM
[6] = vehicle 20% HPβCD, form CO2−Na+
[7] = HEK293, read-out: % Inh (%) @ 0.2 μM

Sequence of canine TRPM8 (Q1A7N1 1-1104): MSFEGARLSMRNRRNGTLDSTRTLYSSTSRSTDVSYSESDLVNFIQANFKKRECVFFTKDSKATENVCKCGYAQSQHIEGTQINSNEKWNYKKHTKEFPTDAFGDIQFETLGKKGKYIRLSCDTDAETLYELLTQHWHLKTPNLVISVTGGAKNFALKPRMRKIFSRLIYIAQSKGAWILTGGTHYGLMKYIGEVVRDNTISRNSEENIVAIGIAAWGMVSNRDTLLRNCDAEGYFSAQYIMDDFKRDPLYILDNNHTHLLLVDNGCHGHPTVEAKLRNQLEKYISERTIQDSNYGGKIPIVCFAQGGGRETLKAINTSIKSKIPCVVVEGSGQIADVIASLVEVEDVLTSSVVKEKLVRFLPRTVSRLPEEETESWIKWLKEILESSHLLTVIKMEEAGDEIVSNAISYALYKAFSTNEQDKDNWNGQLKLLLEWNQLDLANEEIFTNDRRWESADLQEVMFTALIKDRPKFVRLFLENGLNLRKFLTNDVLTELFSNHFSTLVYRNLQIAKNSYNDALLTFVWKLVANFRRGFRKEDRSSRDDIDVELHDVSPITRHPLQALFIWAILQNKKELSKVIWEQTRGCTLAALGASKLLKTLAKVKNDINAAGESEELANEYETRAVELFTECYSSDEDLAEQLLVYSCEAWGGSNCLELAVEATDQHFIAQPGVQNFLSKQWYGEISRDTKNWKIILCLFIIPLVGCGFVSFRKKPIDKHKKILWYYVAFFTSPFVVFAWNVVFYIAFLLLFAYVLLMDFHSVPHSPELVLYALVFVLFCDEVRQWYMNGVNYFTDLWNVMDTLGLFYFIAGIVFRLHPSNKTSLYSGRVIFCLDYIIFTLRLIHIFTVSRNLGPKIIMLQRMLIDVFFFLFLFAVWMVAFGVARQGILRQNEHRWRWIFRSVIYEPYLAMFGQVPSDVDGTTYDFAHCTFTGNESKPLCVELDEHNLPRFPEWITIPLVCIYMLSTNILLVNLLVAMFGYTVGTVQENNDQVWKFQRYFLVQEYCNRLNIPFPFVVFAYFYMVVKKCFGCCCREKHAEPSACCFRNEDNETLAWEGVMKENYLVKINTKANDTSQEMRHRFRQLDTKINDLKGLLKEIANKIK
Sequence of TRPM8 (Q8R4D5 whole entry): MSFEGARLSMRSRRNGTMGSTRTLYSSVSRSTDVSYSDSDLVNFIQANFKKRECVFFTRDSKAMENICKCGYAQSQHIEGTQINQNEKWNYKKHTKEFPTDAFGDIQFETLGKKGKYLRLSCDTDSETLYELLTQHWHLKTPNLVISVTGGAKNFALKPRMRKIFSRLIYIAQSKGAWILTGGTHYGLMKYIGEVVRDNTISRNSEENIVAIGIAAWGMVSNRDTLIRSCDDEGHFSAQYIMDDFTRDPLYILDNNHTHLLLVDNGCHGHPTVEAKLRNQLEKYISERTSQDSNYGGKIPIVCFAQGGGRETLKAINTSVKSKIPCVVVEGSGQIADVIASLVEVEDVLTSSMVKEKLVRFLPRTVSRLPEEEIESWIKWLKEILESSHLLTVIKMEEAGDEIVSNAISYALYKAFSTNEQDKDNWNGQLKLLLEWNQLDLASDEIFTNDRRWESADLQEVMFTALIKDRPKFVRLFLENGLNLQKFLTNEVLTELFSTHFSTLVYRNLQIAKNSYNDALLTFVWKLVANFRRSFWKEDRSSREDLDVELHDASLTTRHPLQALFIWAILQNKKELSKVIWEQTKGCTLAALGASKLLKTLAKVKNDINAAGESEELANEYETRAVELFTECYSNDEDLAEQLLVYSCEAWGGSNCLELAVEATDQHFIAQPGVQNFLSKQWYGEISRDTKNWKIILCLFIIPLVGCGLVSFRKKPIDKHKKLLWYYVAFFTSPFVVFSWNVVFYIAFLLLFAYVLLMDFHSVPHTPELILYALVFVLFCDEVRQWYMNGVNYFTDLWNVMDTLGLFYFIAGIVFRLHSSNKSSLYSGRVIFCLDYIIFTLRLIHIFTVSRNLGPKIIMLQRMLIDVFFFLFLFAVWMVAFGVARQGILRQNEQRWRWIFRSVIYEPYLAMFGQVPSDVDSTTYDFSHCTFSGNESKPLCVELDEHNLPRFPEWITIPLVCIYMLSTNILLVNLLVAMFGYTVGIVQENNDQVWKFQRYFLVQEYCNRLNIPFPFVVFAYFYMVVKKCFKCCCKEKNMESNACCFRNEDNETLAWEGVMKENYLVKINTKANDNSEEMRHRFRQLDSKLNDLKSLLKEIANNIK

inhibition at 0.2 µM [1, 5] [%] | Compound | % Inh (%) @ 0.2 μM [1, 4] [%] | pIC50 [1, 4] | inhibition at 0.2 µM [1, 7] [%] | further results
97 | O=S(=O)(c1ccccc1)N(Cc1ccc(F)c(C(F)(F)F)c1)c1nc2ccc(Cl)cn2c1Cl [Compound 8] | 96 | 7.74 and 7.63 and 7.54 | – | % Inhibition ([2]; vehicle 10% Solutol, form Hydrochloride): 15.5%
100 | Cc1c(N(Cc2ccc(C(F)(F)F)c(F)c2)S(=O)(=O)c2ccccc2)nc2ccc(Cl)cn12 [Compound 38] | – | – | – | % Inhibition ([2]; vehicle 20% HPβCD, form Hydrochloride): 6.5%
– | Cc1c(N(Cc2ccc(OC(F)(F)F)cc2)S(=O)(=O)c2ccc(C(=O)[O-])cc2)nc2ccccn12.[Na+] [Compound 107] | 101 | 8.25 | – | % Inhibition [2, 6]: −20.6%
– | CC(C)c1c(N(Cc2ccc(OC(F)(F)F)cc2)S(=O)(=O)c2ccc(C(=O)[O-])cc2)nc2ccccn12.[Na+] [Compound 109] | 101 | 8.64 | – | % Inhibition [2, 6]: −7.5%
– | Cc1c(N(Cc2ccc(OC(F)(F)F)cc2)S(=O)(=O)c2ccc(C(=O)O)cc2)nc2ccc(Cl)cn12 [Compound 113, Sodium 4-(N-(6-Chloro-3-methylimidazo[1,2-a]pyridin-2-yl)-N-(4-trifluoromethoxybenzyl)sulfamoyl)benzoate] | – | 7.84 | 102 | –
– | Cc1c(N(Cc2ccc(F)c(F)c2)S(=O)(=O)c2ccc(C(=O)O)cc2)nc2ccc(Cl)cn12 [Compound 114] | – | – | 38 | –
– | Cc1c(N(Cc2ccc(F)c(C(F)(F)F)c2)S(=O)(=O)c2ccc(C(=O)O)cc2)nc2ccc(Cl)cn12 [Compound 115] | – | – | 96 | –
102 | COC(=O)c1ccc(S(=O)(=O)N(Cc2ccc(OC(F)(F)F)cc2)c2nc3ccccn3c2Cl)cc1 [Compound 116] | – | 8.28 | – | –
– | Cc1cccn2c(C)c(N(Cc3ccc(OC(F)(F)F)cc3)S(=O)(=O)c3ccc(C(=O)[O-])cc3)nc12.[Na+] [Compound 117] | 101 | 7.87 | – | –
100 | COC(=O)c1ccc(S(=O)(=O)N(Cc2ccc(OC(F)(F)F)cc2)c2nc3ccc(F)cn3c2C)cc1 [Compound 118, Methyl 4-(N-(6-fluoro-3-methylimidazo[1,2-a]pyridin-2-yl)-N-(4-(trifluoromethoxy)benzyl)sulfamoyl)benzoate] | – | 7.74 | – | –
100 | COC(=O)c1ccc(S(=O)(=O)N(Cc2ccc(F)c(C(F)(F)F)c2)c2nc3ccc(F)cn3c2C)cc1 [Compound 119, Methyl 4-(N-(6-fluoro-3-methylimidazo[1,2-a]pyridin-2-yl)-N-(4-fluoro-3-(trifluoromethyl)benzyl)sulfamoyl)benzoate] | – | 7.62 | – | –
– | Cc1c(N(Cc2ccc(OC(F)(F)F)cc2)S(=O)(=O)c2ccc(C(=O)O)cc2)nc2ccc(F)cn12 [Compound 120, Sodium 4-(N-(6-fluoro-3-methylimidazo[1,2-a]pyridin-2-yl)-N-(4-(trifluoromethoxy)benzyl)sulfamoyl)benzoate] | – | 7.91 | 102 | –
– | Cc1c(N(Cc2ccc(F)c(C(F)(F)F)c2)S(=O)(=O)c2ccc(C(=O)O)cc2)nc2ccc(F)cn12 [Compound 121, Sodium 4-(N-(6-fluoro-3-methylimidazo[1,2-a]pyridin-2-yl)-N-(4-fluoro-3-(trifluoromethyl)benzyl)sulfamoyl)benzoate] | – | 7.48 | 101 | –
– | Cc1c(N(Cc2ccc(OC(F)(F)F)cc2)S(=O)(=O)c2ccc(C(=O)O)cc2)nc2c(F)cccn12 [Compound 122] | 99 | 8.39 | – | –
– | O=C1NC(c2cccc([N+](=O)[O-])c2)=CCN1c1ccccc1O [icilin] | – | – | – | pEC50 [3]: 6.70
